# Results reported in ChEMBL document CHEMBL4265931, “Identification of dual Sigma1 receptor modulators/acetylcholinesterase inhibitors with antioxidant and neurotrophic properties, as neuroprotective agents” (Eur J Med Chem, 2018).
# Calls of active or inactive are those of the source. The calls are words filed in the database; no cut-off is given here.
# Assays:
# [1] = Selectivity ratio of Ki for S2R in rat liver membranes to Ki for S1R in guinea pig brain cortex membranes; type: cell membranes
# [2] = target: Sigma non-opioid intracellular receptor 1 (Cavia porcellus, UniProt Q60492); assay: Displacement of [3H](+)-pentazocine from S1R in guinea pig brain cortex membranes after 120 mins by scintillation counting assay; type: cell membranes
# Sequence of Sigma non-opioid intracellular receptor 1 (Q60492 whole entry): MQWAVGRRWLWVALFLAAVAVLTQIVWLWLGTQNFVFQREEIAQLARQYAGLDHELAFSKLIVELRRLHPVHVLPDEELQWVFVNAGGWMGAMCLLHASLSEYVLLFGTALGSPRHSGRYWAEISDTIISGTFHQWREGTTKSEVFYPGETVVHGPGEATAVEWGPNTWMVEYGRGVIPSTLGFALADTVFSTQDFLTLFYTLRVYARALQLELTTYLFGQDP
# [3] = target: T1, Sigma intracellular receptor 2 (Rattus norvegicus, UniProt Q5U3Y7); assay: Displacement of [3H]-DTG from S2R in rat liver membranes after 120 mins by scintillation counting assay; type: cell membranes, Membrane
# T1 sequence (Q5U3Y7 whole entry): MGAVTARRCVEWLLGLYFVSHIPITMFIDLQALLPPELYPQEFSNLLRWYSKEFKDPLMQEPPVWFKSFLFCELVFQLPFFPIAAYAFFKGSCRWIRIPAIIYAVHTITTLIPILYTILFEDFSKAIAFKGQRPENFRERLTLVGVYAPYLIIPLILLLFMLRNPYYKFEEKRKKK
# Acetylcholinesterase = Acetylcholinesterase (Electrophorus electricus, UniProt O42275); assay: Inhibition of electric eel AChE using acetylthiocholine iodide as substrate preincubated for 5 mins followed by substrate addition and measured after 2 mins by Ellman's method
# Sequence of Acetylcholinesterase (O42275 whole entry): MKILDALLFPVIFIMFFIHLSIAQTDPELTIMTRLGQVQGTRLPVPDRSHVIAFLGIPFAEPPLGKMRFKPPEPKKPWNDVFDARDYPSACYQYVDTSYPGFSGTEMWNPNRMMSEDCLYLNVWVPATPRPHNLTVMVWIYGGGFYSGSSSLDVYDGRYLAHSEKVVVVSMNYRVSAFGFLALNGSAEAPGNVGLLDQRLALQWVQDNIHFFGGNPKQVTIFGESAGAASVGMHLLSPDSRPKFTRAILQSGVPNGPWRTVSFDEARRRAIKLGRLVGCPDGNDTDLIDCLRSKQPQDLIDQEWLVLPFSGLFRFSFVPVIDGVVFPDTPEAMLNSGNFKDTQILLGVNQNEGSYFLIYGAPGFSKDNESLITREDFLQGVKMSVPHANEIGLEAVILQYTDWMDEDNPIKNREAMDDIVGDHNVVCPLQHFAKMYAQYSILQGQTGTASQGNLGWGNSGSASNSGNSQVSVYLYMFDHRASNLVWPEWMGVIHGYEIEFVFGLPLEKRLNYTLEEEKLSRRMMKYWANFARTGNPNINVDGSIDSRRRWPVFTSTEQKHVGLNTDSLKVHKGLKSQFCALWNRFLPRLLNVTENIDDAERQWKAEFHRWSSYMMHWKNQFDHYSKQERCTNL
# [4] = Displacement of [3H]-ifenprodil from GluN1a/GluN2B (unknown origin) expressed in mouse L(tk-) cell membranes after 120 mins by scintillation counting analysis; set-up: species or system Homo sapiens
# in vitro [5] = settings: human, SH-SY5Y cells
# Description: Cytotoxicity against human SH-SY5Y cells assessed as cell viability at 50 uM after 48 hrs by MTS assay relative to control
# in vitro [6] = settings: human, SH-SY5Y cells; remark: listed apart in the source
# in vitro [7] = settings: human, SH-SY5Y cells; remark: listed apart in the source
# Description: Cytotoxicity against human SH-SY5Y cells assessed as cell viability at 50 uM after 24 hrs by MTS assay relative to control
# in vitro [8] = settings: human, SH-SY5Y cells; remark: listed apart in the source
# Description: Cytotoxicity against human SH-SY5Y cells assessed as cell viability at 10 uM after 48 hrs by MTS assay relative to control
# in vitro [9] = settings: human, SH-SY5Y cells; remark: listed apart in the source
# Description: Cytotoxicity against human SH-SY5Y cells assessed as cell viability at 10 uM after 24 hrs by MTS assay relative to control
# in vitro [10] = settings: human, SH-SY5Y cells; remark: listed apart in the source
# SH-SY5Y [11] = assay: Neuroprotection against H2O2-induced oxidative stress in human SH-SY5Y cells assessed as reduction in ROS generation at 10 uM preincubated for 3 hrs followed by DCFDA addition for 45 mins and subsequent co-treatment with compound and H2O2 for 24 hrs by fluorescence assay relative to control; type: functional
# SH-SY5Y [12] = assay: Cytotoxicity against human SH-SY5Y cells assessed as reduction in cell viability after 24 hrs by MTS assay; type: cell-based; settings: human, sh-sy5y
# [13] = Antioxidant activity assessed as DPPH free radical scavenging at 465 uM after 20 mins by UV-Vis spectrophotometric analysis relative to control; type: functional
# SH-SY5Y [14] = assay: Cytotoxicity against human SH-SY5Y cells assessed as reduction in cell viability after 48 hrs by MTS assay; type: cell-based; settings: human, sh-sy5y
# [15] = Antioxidant activity assessed as DPPH free radical scavenging after 20 mins by UV-Vis spectrophotometric analysis; type: functional
compound,measurement,setting,value
O=C(CCCN1CCC(Cc2ccccc2)CC1)c1ccc(-c2ccccc2)cc1,Ratio Ki,[1],5.2
same,Ki,[2],135 nM
same,Ki,[3],704 nM
same,IC50,Acetylcholinesterase,13900 nM
same,Ki,[4],96 nM
O=C(CCN1CCOCC1)c1ccccc1,Ki,[2],606 nM
same,Ki,[3],> 1000 nM
same,Ki,[4],> 1000 nM
C[C@H](CCN1CCCCC1)c1ccc(-c2ccccc2)cc1,Ratio Ki,[1],25
same,"viability at 48 h, 50 µM",in vitro [5],57.3%
same,"viability at 48 h, 25 µM",in vitro [6],77.1%
same,Ki,[3],45 nM
same,"viability at 24 h, 50 µM",in vitro [7],86%
same,"viability at 48 h, 10 µM",in vitro [8],84%
same,"viability at 24 h, 10 µM",in vitro [9],100%
same,"viability at 24 h, 25 µM",in vitro [10],100%
same,Ki,[4],> 1000 nM
same,Activity,SH-SY5Y [11],inactive
O=C(CN1CCC(Cc2ccccc2)CC1)c1ccccc1,Ratio Ki,[1],30.7
same,Ki,[2],75 nM
same,Ki,[3],2300 nM
same,Ki,[4],215 nM
Cl.O=C(CCN1CCC(Cc2ccccc2)CC1)c1ccccc1,Ratio Ki,[1],363
same,Activity,SH-SY5Y [12],Dose-dependent effect
same,"viability at 48 h, 50 µM",in vitro [5],36%
same,"viability at 48 h, 25 µM",in vitro [6],44%
same,Ki,[2],16 nM
same,Ki,[3],5800 nM
same,Activity,[13],25.9%
same,"viability at 24 h, 50 µM",in vitro [7],49%
same,Activity,SH-SY5Y [14],Dose-dependent effect
same,"viability at 48 h, 10 µM",in vitro [8],106%
same,"viability at 24 h, 10 µM",in vitro [9],93%
same,"viability at 24 h, 25 µM",in vitro [10],48%
same,Ki,[4],39 nM
COc1cccc(C(=O)CCCN2CCC(Cc3ccccc3)CC2)c1.Cl,Ratio Ki,[1],2.5
same,Activity,SH-SY5Y [12],Dose-dependent effect
same,"viability at 48 h, 50 µM",in vitro [5],65%
same,"viability at 48 h, 25 µM",in vitro [6],85.6%
same,Ki,[2],17 nM
same,Ki,[3],43 nM
same,Activity,[13],32%
same,"viability at 24 h, 50 µM",in vitro [7],98%
same,Activity,SH-SY5Y [14],Dose-dependent effect
same,"viability at 48 h, 10 µM",in vitro [8],94.8%
same,IC50,Acetylcholinesterase,7640 nM
same,"viability at 24 h, 10 µM",in vitro [9],100%
same,"viability at 24 h, 25 µM",in vitro [10],100%
same,Ki,[4],49 nM
COc1ccc(C(=O)CCN2CCCCC2)cc1.Cl,Ratio Ki,[1],256
same,Activity,SH-SY5Y [12],Dose-dependent effect
same,"viability at 48 h, 50 µM",in vitro [5],43.4%
same,"viability at 48 h, 25 µM",in vitro [6],49.4%
same,Ki,[2],7.9 nM
same,Ki,[3],2100 nM
same,Activity,[13],14.4%
same,"viability at 24 h, 50 µM",in vitro [7],63%
same,Activity,SH-SY5Y [14],Dose-dependent effect
same,"viability at 48 h, 10 µM",in vitro [8],104%
same,"viability at 24 h, 10 µM",in vitro [9],119%
same,"viability at 24 h, 25 µM",in vitro [10],86%
same,Ki,[4],1700 nM
O=C(CN1CCC(Cc2ccccc2)CC1)c1ccc(-c2ccccc2)cc1,Ki,[3],> 1000 nM
same,Ki,[4],> 1000 nM
COc1ccc2cc(C(=O)CCCN3CCC(Cc4ccccc4)CC3)ccc2c1,Ratio Ki,[1],1.6
same,Ki,[2],68 nM
same,Ki,[3],107 nM
same,IC50,Acetylcholinesterase,4280 nM
same,Ki,[4],20 nM
COc1cccc(C(=O)CN2CCC(Cc3ccccc3)CC2)c1,Ratio Ki,[1],11.5
same,Ki,[2],131 nM
same,Ki,[3],1500 nM
same,IC50,Acetylcholinesterase,32800 nM
same,Ki,[4],11 nM
O=C(CCN1CCC(Cc2ccccc2)CC1)c1ccc(-c2ccccc2)cc1,Ratio Ki,[1],23.4
same,Ki,[2],167 nM
same,Ki,[3],3900 nM
same,Ki,[4],> 1000 nM
Cl.O=C(CCCN1CCC(Cc2ccccc2)CC1)c1ccccc1,Ratio Ki,[1],5.2
same,Activity,SH-SY5Y [12],Dose-dependent effect
same,"viability at 48 h, 50 µM",in vitro [5],54%
same,"viability at 48 h, 25 µM",in vitro [6],95%
same,Ki,[2],9 nM
same,Ki,[3],47 nM
same,Activity,[13],29.3%
same,"viability at 24 h, 50 µM",in vitro [7],87%
same,Activity,SH-SY5Y [14],Dose-dependent effect
same,"viability at 48 h, 10 µM",in vitro [8],96%
same,IC50,Acetylcholinesterase,13100 nM
same,"viability at 24 h, 10 µM",in vitro [9],100%
same,"viability at 24 h, 25 µM",in vitro [10],100%
same,Ki,[4],39 nM
Cl.O=C(CCN1CCOCC1)c1ccc(-c2ccccc2)cc1,Activity,SH-SY5Y [12],Dose-dependent effect
same,"viability at 48 h, 50 µM",in vitro [5],62.4%
same,"viability at 48 h, 25 µM",in vitro [6],66%
same,Ki,[3],> 1000 nM
same,Activity,[13],22.1%
same,"viability at 24 h, 50 µM",in vitro [7],83.3%
same,Activity,SH-SY5Y [14],Dose-dependent effect
same,"viability at 48 h, 10 µM",in vitro [8],100%
same,"viability at 24 h, 10 µM",in vitro [9],100%
same,"viability at 24 h, 25 µM",in vitro [10],73%
same,Ki,[4],723 nM
COc1ccc(C(=O)CCCN2CCC(Cc3ccccc3)CC2)cc1.Cl,Ratio Ki,[1],6.8
same,Activity,SH-SY5Y [12],Dose-dependent effect
same,"viability at 48 h, 50 µM",in vitro [5],61%
same,"viability at 48 h, 25 µM",in vitro [6],87%
same,Ki,[2],31 nM
same,Ki,[3],111 nM
same,Activity,[13],12.9%
same,"viability at 24 h, 50 µM",in vitro [7],84.4%
same,Activity,SH-SY5Y [14],Dose-dependent effect
same,"viability at 48 h, 10 µM",in vitro [8],97.3%
same,IC50,Acetylcholinesterase,12800 nM
same,"viability at 24 h, 10 µM",in vitro [9],100%
same,"viability at 24 h, 25 µM",in vitro [10],100%
same,Ki,[4],96 nM
Cl.O=C(CCCN1CCC(Cc2ccccc2)CC1)c1ccc2ccccc2c1,Ratio Ki,[1],2.4
same,Activity,SH-SY5Y [12],Dose-dependent effect
same,"viability at 48 h, 50 µM",in vitro [5],61%
same,"viability at 48 h, 25 µM",in vitro [6],57%
same,Ki,[2],24 nM
same,Ki,[3],58 nM
same,Activity,[13],31.6%
same,"viability at 24 h, 50 µM",in vitro [7],86%
same,Activity,SH-SY5Y [14],Dose-dependent effect
same,"viability at 48 h, 10 µM",in vitro [8],77%
same,"viability at 24 h, 10 µM",in vitro [9],80.2%
same,"viability at 24 h, 25 µM",in vitro [10],86%
same,Ki,[4],26 nM
COc1ccc(C(=O)CN2CCC(Cc3ccccc3)CC2)cc1.Cl,Ratio Ki,[1],74
same,IC50,[15],147000 nM
same,Activity,SH-SY5Y [12],Dose-dependent effect
same,"viability at 48 h, 50 µM",in vitro [5],52.5%
same,"viability at 48 h, 25 µM",in vitro [6],69.3%
same,Ki,[2],27 nM
same,Ki,[3],2000 nM
same,Activity,[13],65.6%
same,"viability at 24 h, 50 µM",in vitro [7],87%
same,Activity,SH-SY5Y [14],Dose-dependent effect
same,"viability at 48 h, 10 µM",in vitro [8],85.5%
same,"viability at 24 h, 10 µM",in vitro [9],103%
same,"viability at 24 h, 25 µM",in vitro [10],98.4%
same,Ki,[4],16 nM
Cl.O=C(CCN1CCCCC1)c1ccc2ccccc2c1,Ratio Ki,[1],81
same,Activity,SH-SY5Y [12],Dose-dependent effect
same,"viability at 48 h, 50 µM",in vitro [5],40%
same,"viability at 48 h, 25 µM",in vitro [6],42%
same,Ki,[3],178 nM
same,Activity,[13],18.3%
same,"viability at 24 h, 50 µM",in vitro [7],65.4%
same,Activity,SH-SY5Y [14],Dose-dependent effect
same,"viability at 48 h, 10 µM",in vitro [8],70.3%
same,"viability at 24 h, 10 µM",in vitro [9],98.6%
same,"viability at 24 h, 25 µM",in vitro [10],66.4%
same,Ki,[4],> 1000 nM
Cl.O=C(CCN1CCOCC1)c1ccc2ccccc2c1,Activity,SH-SY5Y [12],Dose-dependent effect
same,"viability at 48 h, 50 µM",in vitro [5],37%
same,"viability at 48 h, 25 µM",in vitro [6],38%
same,Ki,[3],> 1000 nM
same,Activity,[13],8.14%
same,"viability at 24 h, 50 µM",in vitro [7],49%
same,Activity,SH-SY5Y [14],Dose-dependent effect
same,"viability at 48 h, 10 µM",in vitro [8],79%
same,"viability at 24 h, 10 µM",in vitro [9],77%
same,"viability at 24 h, 25 µM",in vitro [10],48%
same,Ki,[4],> 1000 nM
O=C(CCN1CCCCC1)c1ccccc1,Ratio Ki,[1],4.4
same,Ki,[2],171 nM
same,Ki,[3],749 nM
same,Ki,[4],> 1000 nM
O=C(CCN1CCC(Cc2ccccc2)CC1)c1ccc2ccccc2c1,Ratio Ki,[1],29.4
same,Ki,[2],211 nM
same,Ki,[3],6200 nM
same,IC50,Acetylcholinesterase,18600 nM
same,Ki,[4],> 1000 nM
COc1ccc2cc(C(=O)CN3CCC(Cc4ccccc4)CC3)ccc2c1,Ratio Ki,[1],4.9
same,Ki,[2],286 nM
same,Ki,[3],1400 nM
same,Ki,[4],> 1000 nM
COc1ccc(C(=O)CCN2CCOCC2)cc1,Ki,[2],301 nM
same,Ki,[3],> 1000 nM
same,Ki,[4],> 1000 nM
CC(C(O)c1ccc(O)cc1)N1CCC(Cc2ccccc2)CC1 (centres undefined) [IFENPRODIL],Ki,[4],10 nM
COc1ccc(C(=O)CCN2CCC(Cc3ccccc3)CC2)cc1.Cl,Ratio Ki,[1],218
same,Activity,SH-SY5Y [12],Dose-dependent effect
same,"viability at 48 h, 50 µM",in vitro [5],44.7%
same,"viability at 48 h, 25 µM",in vitro [6],50.2%
same,Ki,[2],11 nM
same,Ki,[3],2400 nM
same,Activity,[13],2.8%
same,"viability at 24 h, 50 µM",in vitro [7],56.5%
same,Activity,SH-SY5Y [14],Dose-dependent effect
same,"viability at 48 h, 10 µM",in vitro [8],97.4%
same,IC50,Acetylcholinesterase,22000 nM
same,"viability at 24 h, 10 µM",in vitro [9],99.9%
same,"viability at 24 h, 25 µM",in vitro [10],63.9%
same,Ki,[4],198 nM
same,Activity,SH-SY5Y [11],inactive
